Assay results: US20170283396A1, “DIAMINOHETEROARYL SUBSTITUTED INDAZOLES” (Bayer Pharma Aktiengesellschaft, priority 2013, published 2017)
Read-outs that look alike come from different tables or passages of the source.

Legend:
HeLa-MaTu-ADR cell line = assay: Proliferation assay (HeLa-MaTu-ADR cell line); type: cell-based; settings: 96 h, read-out: Biological Assay 2: Proliferation assay (HeLa-MaTu-ADR cell line) median IC50
Protocol: (§1) Cultivated tumor cells (cells were ordered from ATCC, except HeLa-MaTu and HeLa-MaTu-ADR, which were ordered from EPO-GmbH, Berlin) were plated at a density of 1000 to 5000 cells/well, depending on the growth rate of the respective cell line, in a 96-well multititer plate in 200 μL of their respective growth medium supplemented 10% fetal calf serum. After 24 hours, the cells of one plate (zero-point plate) were stained with crystal violet (see below), while the medium of the other plates was replaced by fresh culture medium (200 μL), to which the test substances were added in various concentrations (0 μM, as well as in the range of 0.001-10 μM; the final concentration of the solvent dimethyl sulfoxide was 0.5%). The cells were incubated for 4 days in the presence of test substances. Cell proliferation was determined by staining the cells with crystal violet: the cells were fixed by adding 20 μl/measuring point of an 11% glutaric aldehyde solution for 15 minutes at room temperature. After three washing cycles of the fixed cells with water, the plates were dried at room temperature. The cells were stained by adding 100 μl/measuring point of a 0.1% crystal violet solution (pH 3.0). After three washing cycles of the stained cells with water, the plates were dried at room temperature. The dye was dissolved by adding 100 μl/measuring point of a 10% acetic acid solution. Absorption was determined by photometry at a wavelength of 595 nm. The change of cell number, in percent, was calculated by normalization of the measured values to the absorption values of the zero-point plate (=0%) and the absorption of the untreated (0 μm) cells (=100%). The IC50 values were determined by means of a 4 parameter fit using the company's own software.

B16F10 cell line = assay: Proliferation assay (B16F10 cell line); type: cell-based; settings: Mus musculus, B16-F10, 96 h, read-out: Biological Assay 2: Proliferation assay (B16F10 cell line) median IC50
Protocol: as §1

[1] = target: T1, catalytic domain of human Bub1 (amino acids 704-1085) (Homo sapiens, UniProt O43683); assay: Bub1 kinase assay (TR-FRET); type: biochemical
T1 construct: catalytic domain of human Bub1 (amino acids 704-1085); His6 (N); made in house; host or cells: Hi5 insect cells
T1 sequence (O43683 704-1085): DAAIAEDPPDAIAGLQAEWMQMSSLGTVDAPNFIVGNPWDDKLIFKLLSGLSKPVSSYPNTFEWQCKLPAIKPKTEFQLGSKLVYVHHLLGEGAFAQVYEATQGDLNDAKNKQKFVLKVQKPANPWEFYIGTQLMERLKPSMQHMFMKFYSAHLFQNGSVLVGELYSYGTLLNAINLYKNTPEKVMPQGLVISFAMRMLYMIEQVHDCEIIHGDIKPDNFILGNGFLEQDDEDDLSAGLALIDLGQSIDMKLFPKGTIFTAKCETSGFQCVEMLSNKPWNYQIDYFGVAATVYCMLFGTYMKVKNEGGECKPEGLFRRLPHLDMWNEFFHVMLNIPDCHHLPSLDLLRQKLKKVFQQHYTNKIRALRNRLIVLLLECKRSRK
Protocol: To this end, 100-fold concentrated compound solutions (in DMSO) were previously prepared by serial dilution (1:3.4) of 2 mM stocks in a clear low volume 384-well source microtiter plate (Greiner Bio-One, Frickenhausen, Germany), from which 50 nl of compounds were transferred into a black low volume test microtiter plate from the same supplier. […] The resulting mixture (5 μL final volume) was incubated at […] during 60 min., and the reaction was stopped by the addition of 5 μL of an aqueous EDTA-solution (50 mM EDTA, in 100 mM HEPES pH 7.5 and 0.2% (w/v) bovine serum albumin) which also contained the TR-FRET detection reagents (0.2 μM streptavidin-XL665 [Cisbio Bioassays, Codolet, France] and 1 nM anti-phosho-Serine antibody [Merck Millipore, cat. #35-001] and 0.4 nM LANCE EU-W1024 labeled anti-mouse IgG antibody [Perkin-Elmer, product no. AD0077, alternatively a Terbium-cryptate-labeled anti-mouse IgG antibody from Cisbio Bioassays can be used]). The stopped reaction mixture was further incubated 1 h at 22° C. in order to allow the formation of complexes between peptides and detection reagents. Subsequently, the amount of product was evaluated by measurement of the resonance energy transfer from the Eu-chelate-antibody complex recognizing the Phosphoserine residue to the streptavidin-XL665 bound to the biotin moiety of the peptide. […] IC50 values were calculated by fitting the normalized inhibition data to a 4-parameter logistic equation (Minimum, Maximum, IC50, Hill; Y=Max+(Min−Max)/(1+(X/IC50)Hill)).

DU145 cell line = assay: Proliferation assay (DU145 cell line); type: cell-based; settings: Homo sapiens, DU-145, 96 h, read-out: Biological Assay 2: Proliferation assay (DU145 cell line) median IC50
Protocol: as §1

HeLa cell line = assay: Proliferation assay (HeLa cell line); type: cell-based; settings: Homo sapiens, 96 h, read-out: Biological Assay 2: Proliferation assay (HeLa cell line) median IC50
Protocol: as §1

NCI-H460 cell line = assay: Proliferation assay (NCI-H460 cell line); type: cell-based; settings: Homo sapiens, read-out: Biological Assay 2: Proliferation assay (NCI-H460 cell line) median IC50
Protocol: as §1

Caco2 cell line = assay: Proliferation assay (Caco2 cell line); type: cell-based; settings: Homo sapiens, Caco-2, 96 h, read-out: Biological Assay 2: Proliferation assay (Caco2 cell line) median IC50
Protocol: as §1

[2] = cervical cancer, 4 days incubation, crystal violet staining
[3] = TR-FRET, 10 μM ATP, 1 μM peptide substrate, read-out: Biological Assay 1: Bub1 kinase assay median IC50

IC50 [1, 3]	IC50 (HeLa cell line)	Compound	other results
22 nM	≥ 10000 nM	CCOc1cc(F)c(Cn2nc(-c3nc(Nc4ccncn4)c(NC(=O)COC)c(Nc4ccncn4)n3)c3ccccc32)c(F)c1 [Example 2-4-9, N-{2-[1-(4-ethoxy-2,6-difluorobenzyl)-1H-indazol-3-yl]-4,6-bis(pyrimidin-4-ylamino)pyrimidin-5-yl}-2-methoxyacetamide]	–
710 nM	≥ 10000 nM	CCOc1cc(F)c(Cn2nc(-c3nc(Nc4ccncc4)c(NS(=O)(=O)CC)c(Nc4ccncc4)n3)c3ccccc32)c(F)c1 [Example 2-4-10, N-{2-[1-(4-ethoxy-2,6-difluorobenzyl)-1H-indazol-3-yl]-4,6-bis(pyridin-4-ylamino)pyrimidin-5-yl}ethanesulfonamide]	–
4.1 nM	3500 nM	CCOc1cc(F)c(Cn2nc(-c3nc(N)c(OCCO)c(Nc4ccncc4)n3)c3ccccc32)c(F)c1 [Example 2-5-1, 2-({4-amino-2-[1-(4-ethoxy-2,6-difluorobenzyl)-1H-indazol-3-yl]-6-(pyridin-4-ylamino)pyrimidin-5-yl}oxy)ethanol]	–
170 nM	1200 nM	CCOc1cc(F)c(Cn2nc(-c3nc(Nc4ccncc4)c(OCCO)c(Nc4ccncc4)n3)c3ccccc32)c(F)c1 [Example 2-5-2, 2-({2-[1-(4-ethoxy-2,6-difluorobenzyl)-1H-indazol-3-yl]-4,6-bis-(pyridin-4-ylamino)pyrimidin-5-yl}oxy)ethanol]	IC50 (HeLa-MaTu-ADR cell line): 280 nM; IC50 (B16F10 cell line): 520 nM; IC50 (DU145 cell line): 940 nM; IC50 (NCI-H460 cell line; NCI-H460, 96 h): 590 nM; IC50 (Caco2 cell line): 400 nM

The remaining lines, values behind:

Compound	IC50 [1, 3]	IC50 (HeLa cell line)	other results
Fc1ccccc1Cn1nc(-c2nc(Nc3ccncc3)cc(Nc3ccncc3)n2)c2ccccc21 [Example 2-1-2, 2-[1-(2-fluorobenzyl)-1H-indazol-3-yl]-N,N′-di(pyridin-4-yl)pyrimidine-4,6-diamine]	–	–	IC50 (HeLa-MaTu-ADR cell line; HeLa-MaTu-ADR, cervical cancer, 4 days incubation, crystal violet staining): 1500 nM; IC50 (B16F10 cell line; B16F10, melanoma, 4 days incubation, crystal violet staining): 250 nM; IC50 [1]: > 20000 nM; IC50 (DU145 cell line; DU145, prostate cancer, 4 days incubation, crystal violet staining): 360 nM; IC50 (HeLa cell line; [2]): 490 nM; IC50 (NCI-H460 cell line; 96 h, NCI-H460, non-small cell lung cancer, 4 days incubation, crystal violet staining): 470 nM; IC50 (Caco2 cell line; Caco2, colon cancer, 4 days incubation, crystal violet staining): 1100 nM
CCOc1cc(F)c(Cn2nc(-c3nc(N)c(NC(=O)COC)c(Nc4ccncn4)n3)c3ccccc32)c(F)c1 [Example 2-3-14, N-{4-amino-2-[1-(4-ethoxy-2,6-difluorobenzyl)-1H-indazol-3-yl]-6-(pyrimidin-4-ylamino)pyrimidin-5-yl}-2-methoxyacetamide]	7.9 nM	≥ 10000 nM	–
CCOc1cc(F)c(Cn2nc(-c3nc(N)c(NS(=O)(=O)CC)c(Nc4ccncc4)n3)c3ccccc32)c(F)c1 [Example 2-3-15, N-{4-amino-2-[1-(4-ethoxy-2,6-difluorobenzyl)-1H-indazol-3-yl]-6-(pyridin-4-ylamino)pyrimidin-5-yl}ethanesulfonamide]	5.8 nM	≥ 10000 nM	–
CCOc1cc(F)c(Cn2nc(-c3nc(N)c(NS(=O)(=O)C(F)(F)F)c(Nc4ccncc4)n3)c3ccccc32)c(F)c1 [Example 2-3-16, N-{4-amino-2-[1-(4-ethoxy-2,6-difluorobenzyl)-1H-indazol-3-yl]-6-(pyridin-4-ylamino)pyrimidin-5-yl}-1,1,1-trifluoromethanesulfonamide]	8.7 nM	≥ 10000 nM	–
CCOc1cc(F)c(Cn2nc(-c3nc4c(c(Nc5ccncc5)n3)OCC(=O)N4)c3ccccc32)c(F)c1 [Example 2-3-17, 2-[1-(4-ethoxy-2,6-difluorobenzyl)-1H-indazol-3-yl]-4-(pyridin-4-ylamino)-6H-pyrimido[5,4-b][1,4]oxazin-7(8H)-one]	8 nM	1200 nM	–
CCOc1cc(F)c(Cn2nc(-c3nc4c(c(Nc5ccncn5)n3)OCC(=O)N4)c3ccccc32)c(F)c1 [Example 2-3-18, 2-[1-(4-ethoxy-2,6-difluorobenzyl)-1H-indazol-3-yl]-4-(pyrimidin-4-ylamino)-6H-pyrimido[5,4-b][1,4]oxazin-7(8H)-one]	19 nM	≥ 10000 nM	–
CCOc1cc(F)c(Cn2nc(-c3nc(Nc4ccncc4)c(OC)c(Nc4ccncc4)n3)c3ccccc32)c(F)c1 [Example 2-4-2, 2-[1-(4-ethoxy-2,6-difluorobenzyl)-1H-indazol-3-yl]-5-methoxy-N,N′-di(pyridin-4-yl)pyrimidine-4,6-diamine]	430 nM	1500 nM	IC50 (HeLa-MaTu-ADR cell line): 1100 nM; IC50 (B16F10 cell line): 540 nM; IC50 (DU145 cell line): 3700 nM; IC50 (NCI-H460 cell line; NCI-H460, 96 h): 4300 nM; IC50 (Caco2 cell line): 420 nM
CCOc1cc(F)c(Cn2nc(-c3nc(Nc4ccncc4)c(N4CCOCC4)c(Nc4ccncc4)n3)c3ccccc32)c(F)c1 [Example 2-4-3, 2-[1-(4-ethoxy-2,6-difluorobenzyl)-1H-indazol-3-yl]-5-(morpholin-4-yl)-N,N′-di(pyridin-4-yl)pyrimidine-4,6-diamine]	–	–	IC50 [1]: 640 nM; IC50 (HeLa cell line; [2]): 3400 nM
CCOc1cc(F)c(Cn2nc(-c3nc(Nc4ccncc4)nc(Nc4ccncc4)n3)c3ccccc32)c(F)c1 [Example 2-4-5, 6-[1-(4-ethoxy-2,6-difluorobenzyl)-1H-indazol-3-yl]-N,N′-di(pyridin-4-yl)-1,3,5-triazine-2,4-diamine]	43 nM	940 nM	IC50 (HeLa-MaTu-ADR cell line): 390 nM; IC50 (B16F10 cell line): 780 nM; IC50 (DU145 cell line): 1200 nM; IC50 (NCI-H460 cell line; NCI-H460, 96 h): 750 nM; IC50 (Caco2 cell line): 480 nM
CCOc1cc(F)c(Cn2nc(-c3nc(Nc4ccncc4)c(NC(=O)COC)c(Nc4ccncc4)n3)c3ccccc32)c(F)c1 [Example 2-4-8, N-{2-[1-(4-ethoxy-2,6-difluorobenzyl)-1H-indazol-3-yl]-4,6-bis(pyridin-4-ylamino)pyrimidin-5-yl}-2-methoxyacetamide]	220 nM	2500 nM	–
